“Also recorded” adds a separate entry of the source.
Test system: HCV IRES
Experiment: sf-SHAPE structure mapping of the HCV IRES in the presence of miRNA
Assay type: binding, Hepatitis C virus
Description: First, the intricacies (and cost) introduced by using multiple fluorophores have been eliminated by using a single fluorophore-labelled primer and multiple capillaries, rather than using multiple fluorophores sets in each capillary. We have therefore named this technique, single fluorophore SHAPE (sf-SHAPE). sf-SHAPE is a fragment analysis method that uses an internal standard to allow data from one capillary to be directly compared to data from another, with high precision. Commercial software (Peak Scanner, ABI), as well as custom-designed software (CAFA)11, which assign fragment lengths to peaks using an internal standard and integrates each peak area, are freely available.
We have designed a program entitled Fast Analysis of SHAPE Traces (FAST), which then takes the output from Peak Scanner and automatically (a) corrects for signal decay; (b) corrects for differences in signal strength among samples; and (c) assigns the determined SHAPE reactivity to the appropriate nucleotide, using a ddNTP sequencing ladder and the local southern method. […] FAST is able to generate SHAPE reactivity data from electrophoretic traces in as little as 5-10 minutes, as opposed to hours, with high experimental reproducibility (R2=0.93).
We next explored the effect of miR-122 on the HCV IRES structure. In this experiment, the HCV IRES structure was determined in the presence of miR-122 as well as a control miRNA, miR-124. The IRES structure was also determined in the presence of a mutant miR-122, in which the seed region of miR-122 was retained (NT 1-9), while the remainder of the miRNA was replaced by the end of miR-124 [miR-122(seed) with miR-124(tail)].
SHAPE performed as previously described by Mortimer & Weeks (2009) Nature protocols 4, 1413-1421; and Wilkinson et al. (2006) Nature protocols 1, 1610-1616 except: RNA purification after acylation and removal of miRNA before RT by RNA C&C (Zymoresearch); DNA purification by size exclusion (Sephadex G-50 resin); 1 pmol RNA used in sequences reactions; fragment analysis protocol (GeneScan/ROX 500 standard/50 cm capillary/POP6/voltage 15 kV/T=60° C./injection time=15 s (3100 ABI); 6-FAM labelled primers), and PeakScanner/FAST analysis. IRES folding29, (100 mM NaCl; 2.5 mM MgCl), alamar blue assay and qRT-PCR were performed as previously described30. Luciferase assay performed as described30, except co-transfection (HCV/LNA) was by lipofectamine 2000 (3.5×10^5 huh 7.5 cells/well), with translation measured at 4 hours. LNAs purchased from Exiqon (Scramble-miR/hsa-miR-122 kd2). Sequence logo: RNA graphics were drawn using RNA Viz. P-values (two-tailed unpaired t-test) calculated by InStat 3 (Graphpad).

**Q.** With “miR-122: liver-expressed miRNA, UGGAGUGUGA CAAUGGUGUUUG (UGGAGUGUGACAAUGGUGUUUG)” as the substance, how does the “effect on IRES structure (SHAPE reactivity)” value (HCV IRES with versus without miRNA) read?
**A.** induced a number of changes

**Q.** And the “binding at NTs 32-37” value (outside the complementary seed region)?
**A.** results in binding

**Q.** What about the “binding to the S2 target of the IRES (NT 38-42)” value (seed site) of the same substance?
**A.** bound

**Q.** And the “flexibility of the S2 target site” value (upon addition of miRNA, HCV nucleotides 32-42)?
**A.** significant reduction in flexibility

**Q.** What about the “flexibility / reactivity of domain IV (AUG start site)” value (upon addition of miRNA, nucleotides 335, 336, 351) of the same substance?
**A.** becomes more flexible; also recorded: significantly increased flexibility
